Reference: PubChem BioAssay (NCI)
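Exposure lasted 48 hours, with cells grown in 96-well plates and compounds tested at five concentrations. GI50 is the concentration that inhibits growth by half. TGI denotes the concentration required for complete inhibition of growth.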

Legend:
Assay in all cases: inhibition of tumour cell growth, NCI panel, 48 h
786-0 renal = system: 786-0 renal
A498 renal = system: A498 renal
A549 NSCLC = system: A549 NSCLC
ACHN renal = system: ACHN renal
BT-549 breast = system: BT-549 breast
CAKI-1 renal = system: CAKI-1 renal
CCRF-CEM leukemia = system: CCRF-CEM leukemia
COLO 205 colon = system: COLO 205 colon
DU-145 prostate = system: DU-145 prostate
EKVX NSCLC = system: EKVX NSCLC
HCC-2998 colon = system: HCC-2998 colon
HCT-116 colon = system: HCT-116 colon
HCT-15 colon = system: HCT-15 colon
HL-60(TB) leukemia = system: HL-60(TB) leukemia
HOP-62 NSCLC = system: HOP-62 NSCLC
HOP-92 NSCLC = system: HOP-92 NSCLC
HS 578T breast = system: HS 578T breast
HT29 colon = system: HT29 colon
IGROV1 ovarian = system: IGROV1 ovarian
K-562 leukemia = system: K-562 leukemia
KM12 colon = system: KM12 colon
LOX IMVI melanoma = system: LOX IMVI melanoma
M14 melanoma = system: M14 melanoma
MALME-3M melanoma = system: MALME-3M melanoma
MCF7 breast = system: MCF7 breast
MDA-MB-231 breast = system: MDA-MB-231 breast
MDA-MB-435 = system: MDA-MB-435
MOLT-4 leukemia = system: MOLT-4 leukemia
NCI-H226 lung = system: NCI-H226 lung
NCI-H23 lung = system: NCI-H23 lung
NCI-H460 lung = system: NCI-H460 lung
NCI-H522 lung = system: NCI-H522 lung
NCI/ADR-RES ovarian = system: NCI/ADR-RES ovarian
OVCAR-3 ovarian = system: OVCAR-3 ovarian
OVCAR-4 ovarian = system: OVCAR-4 ovarian
OVCAR-5 ovarian = system: OVCAR-5 ovarian
OVCAR-8 ovarian = system: OVCAR-8 ovarian
PC-3 prostate = system: PC-3 prostate
RPMI-8226 leukemia = system: RPMI-8226 leukemia
RXF 393 renal = system: RXF 393 renal
SF-268 CNS = system: SF-268 CNS
SF-295 CNS = system: SF-295 CNS
SF-539 CNS = system: SF-539 CNS
SK-MEL-2 melanoma = system: SK-MEL-2 melanoma
SK-MEL-28 melanoma = system: SK-MEL-28 melanoma
SK-MEL-5 melanoma = system: SK-MEL-5 melanoma
SK-OV-3 ovarian = system: SK-OV-3 ovarian
SN12C renal = system: SN12C renal
SNB-19 CNS = system: SNB-19 CNS
SNB-75 CNS = system: SNB-75 CNS
SR leukemia = system: SR leukemia
SW-620 colon = system: SW-620 colon
T-47D breast = system: T-47D breast
TK-10 renal = system: TK-10 renal
U251 CNS = system: U251 CNS
UACC-257 melanoma = system: UACC-257 melanoma
UACC-62 melanoma = system: UACC-62 melanoma
UO-31 renal = system: UO-31 renal
MDA-N = system: MDA-N

c1ccc(-c2nnc(Nc3ccc4c(c3)OCCO4)o2)c(NCc2ccncc2)c1
GI50 (786-0 renal): 0.0756 µM
TGI (786-0 renal): > 100 µM
GI50 (A498 renal): 0.0226 µM
TGI (A498 renal): 0.533 µM
GI50 (A549 NSCLC): 0.0388 µM
TGI (A549 NSCLC): 15.4 µM
GI50 (ACHN renal): 0.0784 µM
TGI (ACHN renal): 14.4 µM
GI50 (BT-549 breast): 0.0589 µM
TGI (BT-549 breast): 7.01 µM
GI50 (CAKI-1 renal): 0.16 µM
TGI (CAKI-1 renal): > 100 µM
GI50 (CCRF-CEM leukemia): 0.033 µM
TGI (CCRF-CEM leukemia): > 100 µM
GI50 (COLO 205 colon): 0.0286 µM
TGI (COLO 205 colon): 0.076 µM
GI50 (DU-145 prostate): 0.0363 µM
TGI (DU-145 prostate): 0.566 µM
GI50 (EKVX NSCLC): 0.105 µM
TGI (EKVX NSCLC): > 100 µM
GI50 (HCC-2998 colon): 0.0296 µM
TGI (HCC-2998 colon): 1.35 µM
GI50 (HCT-116 colon): 0.0282 µM
TGI (HCT-116 colon): 11.8 µM
GI50 (HCT-15 colon): 0.0369 µM
TGI (HCT-15 colon): > 100 µM
GI50 (HL-60(TB) leukemia): 0.0236 µM
TGI (HL-60(TB) leukemia): 0.722 µM
GI50 (HOP-62 NSCLC): 0.0297 µM
TGI (HOP-62 NSCLC): 19.9 µM
GI50 (HOP-92 NSCLC): 0.286 µM
TGI (HOP-92 NSCLC): 6.87 µM
GI50 (HS 578T breast): 0.0281 µM
TGI (HS 578T breast): > 69.4 µM
GI50 (HT29 colon): 0.0321 µM
TGI (HT29 colon): 1.75 µM
GI50 (IGROV1 ovarian): 0.0624 µM
TGI (IGROV1 ovarian): 19.1 µM
GI50 (K-562 leukemia): < 0.01 µM
TGI (K-562 leukemia): 4.43 µM
GI50 (KM12 colon): 0.0327 µM
TGI (KM12 colon): 0.435 µM
GI50 (LOX IMVI melanoma): 0.0459 µM
TGI (LOX IMVI melanoma): > 100 µM
GI50 (M14 melanoma): 0.0223 µM
TGI (M14 melanoma): 0.273 µM
GI50 (MALME-3M melanoma): 0.68 µM
TGI (MALME-3M melanoma): > 67.3 µM
GI50 (MCF7 breast): 0.0904 µM
TGI (MCF7 breast): > 38.8 µM
GI50 (MDA-MB-231 breast): 0.0769 µM
TGI (MDA-MB-231 breast): > 100 µM
GI50 (MDA-MB-435): < 0.01 µM
TGI (MDA-MB-435): 0.0171 µM
GI50 (MOLT-4 leukemia): 0.0485 µM
TGI (MOLT-4 leukemia): > 100 µM
GI50 (NCI-H226 lung): 0.0264 µM
TGI (NCI-H226 lung): 0.106 µM
GI50 (NCI-H23 lung): 0.033 µM
TGI (NCI-H23 lung): 6.81 µM
GI50 (NCI-H460 lung): 0.0313 µM
TGI (NCI-H460 lung): 15.2 µM
GI50 (NCI-H522 lung): < 0.01 µM
TGI (NCI-H522 lung): 0.86 µM
GI50 (NCI/ADR-RES ovarian): 0.0162 µM
TGI (NCI/ADR-RES ovarian): > 51.3 µM
GI50 (OVCAR-3 ovarian): 0.021 µM
TGI (OVCAR-3 ovarian): 0.0504 µM
GI50 (OVCAR-4 ovarian): 0.0818 µM
TGI (OVCAR-4 ovarian): 21.9 µM
GI50 (OVCAR-5 ovarian): 0.0904 µM
TGI (OVCAR-5 ovarian): 79 µM
GI50 (OVCAR-8 ovarian): 0.0419 µM
TGI (OVCAR-8 ovarian): > 42.2 µM
GI50 (PC-3 prostate): 0.0301 µM
TGI (PC-3 prostate): > 52.7 µM
GI50 (RPMI-8226 leukemia): 0.0445 µM
TGI (RPMI-8226 leukemia): 7.63 µM
GI50 (RXF 393 renal): < 0.01 µM
TGI (RXF 393 renal): 0.0421 µM
GI50 (SF-268 CNS): 0.0696 µM
TGI (SF-268 CNS): > 67.6 µM
GI50 (SF-295 CNS): 0.0136 µM
TGI (SF-295 CNS): > 100 µM
GI50 (SF-539 CNS): 0.0283 µM
TGI (SF-539 CNS): 6.01 µM
GI50 (SK-MEL-2 melanoma): 0.16 µM
TGI (SK-MEL-2 melanoma): 22.3 µM
GI50 (SK-MEL-28 melanoma): 0.0411 µM
TGI (SK-MEL-28 melanoma): 39 µM
GI50 (SK-MEL-5 melanoma): 0.0257 µM
TGI (SK-MEL-5 melanoma): 0.153 µM
GI50 (SK-OV-3 ovarian): 0.0191 µM
TGI (SK-OV-3 ovarian): 0.0856 µM
GI50 (SN12C renal): 0.0579 µM
TGI (SN12C renal): > 64.6 µM
GI50 (SNB-19 CNS): 0.0536 µM
TGI (SNB-19 CNS): > 100 µM
GI50 (SNB-75 CNS): 0.0125 µM
TGI (SNB-75 CNS): 12.1 µM
GI50 (SR leukemia): < 0.01 µM
TGI (SR leukemia): > 46.5 µM
GI50 (SW-620 colon): 0.0255 µM
TGI (SW-620 colon): > 100 µM
GI50 (T-47D breast): 1.65 µM
TGI (T-47D breast): 16.9 µM
GI50 (TK-10 renal): 1.98 µM
TGI (TK-10 renal): > 81.8 µM
GI50 (U251 CNS): 0.0369 µM
TGI (U251 CNS): > 35.5 µM
GI50 (UACC-257 melanoma): 3.97 µM
TGI (UACC-257 melanoma): > 62.4 µM
GI50 (UACC-62 melanoma): 0.0312 µM
TGI (UACC-62 melanoma): > 100 µM
GI50 (UO-31 renal): 0.22 µM
TGI (UO-31 renal): 26.3 µM

C/C1=C\[C@H](C)C[C@H](C)OC(=O)C[C@H](c2ccc(O)cc2)NC(=O)[C@H](Cc2ccc(O)c(Br)c2)N(C)C(=O)[C@H](C)NC(=O)[C@@H](C)C1
TGI (786-0 renal): > 25 µM
TGI (A498 renal): > 25 µM
TGI (A549 NSCLC): > 25 µM
TGI (ACHN renal): > 25 µM
TGI (CCRF-CEM leukemia): > 25 µM
TGI (COLO 205 colon): > 25 µM
TGI (DU-145 prostate): > 25 µM
TGI (EKVX NSCLC): > 25 µM
TGI (HCT-116 colon): > 25 µM
TGI (HCT-15 colon): > 25 µM
TGI (HOP-62 NSCLC): > 25 µM
TGI (HOP-92 NSCLC): > 25 µM
TGI (HS 578T breast): > 25 µM
TGI (HT29 colon): > 25 µM
TGI (IGROV1 ovarian): > 25 µM
TGI (K-562 leukemia): > 25 µM
TGI (KM12 colon): > 25 µM
TGI (LOX IMVI melanoma): > 25 µM
TGI (M14 melanoma): > 25 µM
TGI (MALME-3M melanoma): > 25 µM
TGI (MCF7 breast): > 25 µM
TGI (MDA-MB-231 breast): > 25 µM
TGI (MDA-MB-435): > 25 µM
TGI (MDA-N): > 25 µM
TGI (MOLT-4 leukemia): > 25 µM
TGI (NCI-H226 lung): > 25 µM
TGI (NCI-H23 lung): > 25 µM
TGI (NCI-H522 lung): > 25 µM
TGI (NCI/ADR-RES ovarian): > 25 µM
TGI (OVCAR-3 ovarian): > 25 µM
TGI (OVCAR-4 ovarian): > 25 µM
TGI (OVCAR-5 ovarian): > 25 µM
TGI (OVCAR-8 ovarian): > 25 µM
TGI (PC-3 prostate): > 25 µM
TGI (RPMI-8226 leukemia): > 25 µM
TGI (SF-268 CNS): > 25 µM
TGI (SF-295 CNS): > 25 µM
TGI (SK-MEL-2 melanoma): > 25 µM
TGI (SK-MEL-28 melanoma): > 25 µM
TGI (SK-MEL-5 melanoma): > 25 µM
TGI (SK-OV-3 ovarian): > 25 µM
TGI (SN12C renal): > 25 µM
TGI (SNB-19 CNS): > 25 µM
TGI (SNB-75 CNS): > 25 µM
TGI (SR leukemia): > 25 µM
TGI (SW-620 colon): > 25 µM
TGI (TK-10 renal): > 25 µM
TGI (U251 CNS): > 25 µM
TGI (UACC-62 melanoma): > 25 µM
TGI (UO-31 renal): > 25 µM
